In patent US20260325465A1, “SHP-1 INHIBITORS FOR TREATING CANCER” (MDX MANAGEMENT LLC, priority 2022, published 2026):
Entries after “also recorded” stand apart in the source; their conditions may differ.

Columns and labels:
[1] = tested on: macrophages; assay: Macrophage cytokine production and antigen presentation machinery in a tumor milieu; format: cell-based; conditions: IFNγ/LPS
Experimental: FIGS. 2A-2G depict that the inhibition of SHP-1 enhances macrophage proinflammatory response, antigen presentation and phagocytosis in a tumor milieu. FIG. 2A and FIG. 2B depict that SHP-1 activity in macrophages is triggered by proinflammatory stimulation and the extracellular cancer cell ligation (“touching”) of macrophages (green bar in FIG. 2A). […] The SHP-2 inhibitor SHP099 (1 μg/ml) was used in assays. FIG. 2C depicts the inhibition of SHP-1 by TPI-1 dose-dependently recovers IFNγ/LPS-induced activation of STAT1 (p-STAT1) and Erk1/2 (p-Erk1/2) de-activated by SHP-1 (red line). FIG. 2D and FIG. 2E depict that the inhibition of SHP-1 in macrophages by TPI-1 enhances production of proinflammatory cytokines (FIG. 2D) and expression of immunogenic antigen presentation machinery (FIG. 2E) by IFNγ/LPS in a tumor milieu. […] The SHP-1 and SHP-2 inhibitors TPI-1 and SHP099, respectively, was used at 1 μg/ml in assays.
Macrophages with high SHP-1 activity in a tumor milieu diminish production of proinflammatory cytokines but produce high IL-10 (see FIG. 2D, blue bar) under stimulation of IFNγ/LPS. This reinforcement of immunosuppression was reversed by SHP-1 inhibition. Additionally, inhibition of SHP-1 also enabled proinflammatory-activated macrophages to overcome the “don't-eat-me” barrier and initiate potent phagocytosis towards cancer cells, irrespective of cancer cells expressing of CD47 (FIG. 2F and FIG. 2G).

[2] = biological target: T1, SHP-1 (Mus musculus, UniProt P29351); assay: Pulse inhibition of SHP-1 in macrophages, SHP-1 activity (pNpp) over time; format: cell-based, murine
T1 construct: lysate pNpp phosphatase activity after TPI-1 pulse
Experimental: FIGS. 4A and 4B depict that pulse inhibition of SHP-1 transiently enhances proinflammatory signal transduction in macrophages. FIG. 4A: murine macrophages (bone marrow derived macrophages, or “BMDM”) were treated with TPI-1 for 15 min followed by wash to complete removal of TPI-1. At different time points after the TPI-1 treatment, macrophages were stimulated with IFNγ/LPS in the presence of alive cancer cells (1:1 ratio to BMDM) for 20 min prior to cell lysis and assaying SHP-1 activity using pNpp and WB detecting total and phosphorylated STAT1 and Erk1/2. FIG. 4B: the same setting as in FIG. 4A, except that after TPI-1 treatment, TPI-1 in medium was partially removed (50%) or without removal, followed by macrophage stimulation with IFNγ/LPS at different time points.

[3] = tested on: MC38 solid tumor; assay: Cytokine secretion of excised MC38 tumor cubes (ELISA); parameters: species or system murine; conditions: 100 nM, 24 h
Text: FIGS. 6A-6D depict that the inhibition of SHP-1 promotes anti-tumor effects or pro-tumor effects under different circumstances. FIG. 6A depicts that intratumoral macrophages upregulate expression of iRs (Pir-B, Siglec E, F and G, and SIRPα) along with tumor progression to late-stage large sizes. KPC pancreatic tumors of small sizes (<150 mm^3) and those grown to larger sizes (>800 mm^3) were dissociated to single cells, followed by flow cytometry analyses for cell surface protein expression on macrophages (gated F4/80+). FIG. 6B depicts that the inhibition of SHP-1 alone promotes TME immunosuppression. Excised MC38 solid tumor cubes were treated with SHP-1 inhibitor TPI-1 (100 nM) or vehicle (DMSO) in a cell culture setting. After 24 h, tumor secreting cytokines into the culture medium were assayed by ELISA.

[4] = tested on: KPC pancreatic adenocarcinoma; assay: Study-1: continuous vs intermittent iSHP-1 with TLR agonists, efficacy; format: in vivo, mice; conditions: 1, 3 and 10 mg/kg i.p., with CpG plus PolyI:C
Experimental: FIGS. 11A-11E depict the impact of continuous or intermittent iShp-1 treatment on the efficacy and adverse toxicity. FIG. 11A depicts the study design. Mice with KPC pancreatic cancer were either continuously treated with TPI-1 (1× per day) or in an intermittent fashion with gapping days between two treatments (intermittent). Three doses, 1, 3 and 10 mg/kg (i.p.), were tested and TLR agonists (CpG plus PolyI:C, each 10 μg, i.p., 1× every 3 day) was given to kickstart inflammatory response. […] Tumor imaging (FIG. 11B) and volume change records (FIG. 11C) indicate similar efficacies of iShp-1 with continuous or intermittent schemes.
Tumor model: Single engraftment of KPC pancreatic adenocarcinoma
Treatments & dosing strategies: i) iSHP-1—TPI-1, 1, 3, and 10 mg/kg; i.p. either 1× per day (continuous), or following an intermittent schedule depicted in FIG. 11. ii) TLR agonists (αTLR)—CpG, PolyI:C, each 10 μg; i.p. every 3 days

[5] = Study-2: acute adverse toxicity; format: in vivo, mice; conditions: intermittent iSHP-1 therapies
Experimental: FIGS. 12A-12D depict that pulse-intermittent inhibition of SHP-1 (iSHP-1) combined with TLR agonists (αTLR) and/or anti-PD-L1 checkpoint inhibitor effectively treat multi-lesion MC38 colorectal carcinoma. FIG. 12A depicts the treatment scheme. Mice with bilateral MC38 tumors (s.c.) were treated for two days with TPI-1 and various combinations via i.p. or s.c. A 5-day intermittent period was given before the 2nd cycle of treatments to mice that had residue tumors. FIGS. 12B and 12C depict tumor control efficacies measured by tumor volume changes (FIG. 12B) and TME reprogramming, indicating increases in tumor killing immune populations while reduction of immunosuppression. FIG. 12D depicts acute adverse toxicity, measured by body weight, proteinuria, serum ALT level and splenomegaly.

[6] = tested on: MC38 colorectal carcinoma; assay: αTLR-induced inflammation in MC38 tumor-bearing mice with or without TPI-1; format: in vivo, C57BL6 mice
Text: FIGS. 17A-17C depict inhibition of SHP-1 (iShp1) abrogates tumor-imposed immune suppression under pro-inflammatory challenges. FIG. 17A depicts neutrophil infiltration in different organs measured at various time point following αTLR challenge. FIG. 17B depicts neutrophil infiltration in tumor tissues in mice treated with αTLR plus TPI-1. FIG. 17C depicts the phenotype of intratumoral macrophages.
MC38 colorectal carcinoma was established (via subcutaneous administration) in syngeneic C57BL6 mice. After tumor sizes reached more than 200 mm^3, the tumor-bearing mice were induced systemic inflammatory condition by TLR agonists (αTLR, CpG/PolyIC/R848, each 25 μg) administrated via subcutaneous administration at the location distal from MC38 tumor. A group of mice were concurrently administrated with TPI-1 (1 mg/kg) via subcutaneous administration to achieve systemic SHP-1 inhibition.

T1 sequence (P29351 whole entry): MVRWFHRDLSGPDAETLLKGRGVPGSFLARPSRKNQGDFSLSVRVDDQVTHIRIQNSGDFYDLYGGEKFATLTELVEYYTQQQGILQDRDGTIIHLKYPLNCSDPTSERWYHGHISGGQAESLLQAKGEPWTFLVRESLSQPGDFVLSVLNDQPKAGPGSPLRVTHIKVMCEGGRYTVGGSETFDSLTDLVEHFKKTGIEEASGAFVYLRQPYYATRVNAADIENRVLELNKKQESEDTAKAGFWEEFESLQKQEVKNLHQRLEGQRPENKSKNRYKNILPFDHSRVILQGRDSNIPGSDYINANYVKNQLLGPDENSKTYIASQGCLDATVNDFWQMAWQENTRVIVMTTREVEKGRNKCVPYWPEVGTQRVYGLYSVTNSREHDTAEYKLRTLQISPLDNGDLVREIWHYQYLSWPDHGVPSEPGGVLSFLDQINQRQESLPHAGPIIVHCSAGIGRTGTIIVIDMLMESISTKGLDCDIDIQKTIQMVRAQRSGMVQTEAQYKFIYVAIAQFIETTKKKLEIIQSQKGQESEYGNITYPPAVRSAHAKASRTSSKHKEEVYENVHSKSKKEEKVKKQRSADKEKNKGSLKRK

O=C1C=CC(=O)C(c2cc(Cl)ccc2Cl)=C1 [TPI-1]
expression of immunogenic antigen presentation machinery [1]: elevated macrophage production of proinflammatory cytokines and expression of immunogenic antigen presentation machinery | macrophage proinflammatory cytokine production [1]: elevated macrophage production of proinflammatory cytokines | reinforcement of immunosuppression (IL-10) [1]: reversed | duration of pulse SHP-1 inhibition before activity starts to recover ([2]; 15 min treatment, then wash): 5 to 8 h | time for SHP-1 activity to recover to over 50% ([2]; 15 min treatment, then wash): 12 to 16 h | SHP-1 total protein ([2]; after pulse inhibition): did not appear to vary | SHP-1 inhibition (in words) ([2]; immediately after 15 min treatment and wash): strong SHP-1 inhibition | SHP-1 activity recovered ([2]; in 12-16 h after 15 min treatment and wash): over 50% | time to recover SHP-1 activity after pulse inhibition ([2]; pulse inhibition in macrophages): 24 h | SHP-1 inhibition without or with partial inhibitor removal ([2]; without removal or 50% removal): elongated inhibition on the SHP-1 activity | tumor production of IL-6 [3]: increased tumor production of IL-6 and IL-10 | tumor production of IL-10 [3]: increased tumor production of IL-6 and IL-10 | tumor response [4]: restrained KPC pancreatic tumor growth and induced tumor regression | acute adverse toxicity [5]: did not incur acute adverse toxicity | TNFα and IL12 expression of intratumoral macrophages ([6]; TPI-1 1 mg/kg s.c. with αTLR): increased TNFα and IL12 expression | neutrophil infiltration in tumor ([6]; TPI-1 1 mg/kg s.c. with αTLR (CpG/PolyIC/R848, each 25 μg), 1 mg/kg): enabled neutrophil infiltration upon αTLR; also recorded: increased neutrophil infiltration in tumor tissues
